Literature values, collected in PMC11887077 (BMC Cancer, 2025).

Test system: NRP1
Details: in vitro

Substance: CLKADK [CK2]
- affinity with NRP1 compared with CK3: higher affinity
